# According to ChEMBL document CHEMBL3991601, “The target landscape of clinical kinase drugs” (Science, 2017):
# Active and inactive are the calls of the source. Cut-off read from the data, not from the text of the source, for most assays here: actives have a measured Kd and inactives only a lower limit.
# Columns and labels:
# [1] = biological target: T1, Acyl-CoA dehydrogenase family member 10 (Homo sapiens, UniProt Q6JQN1)
# T1 sequence (Q6JQN1 whole entry): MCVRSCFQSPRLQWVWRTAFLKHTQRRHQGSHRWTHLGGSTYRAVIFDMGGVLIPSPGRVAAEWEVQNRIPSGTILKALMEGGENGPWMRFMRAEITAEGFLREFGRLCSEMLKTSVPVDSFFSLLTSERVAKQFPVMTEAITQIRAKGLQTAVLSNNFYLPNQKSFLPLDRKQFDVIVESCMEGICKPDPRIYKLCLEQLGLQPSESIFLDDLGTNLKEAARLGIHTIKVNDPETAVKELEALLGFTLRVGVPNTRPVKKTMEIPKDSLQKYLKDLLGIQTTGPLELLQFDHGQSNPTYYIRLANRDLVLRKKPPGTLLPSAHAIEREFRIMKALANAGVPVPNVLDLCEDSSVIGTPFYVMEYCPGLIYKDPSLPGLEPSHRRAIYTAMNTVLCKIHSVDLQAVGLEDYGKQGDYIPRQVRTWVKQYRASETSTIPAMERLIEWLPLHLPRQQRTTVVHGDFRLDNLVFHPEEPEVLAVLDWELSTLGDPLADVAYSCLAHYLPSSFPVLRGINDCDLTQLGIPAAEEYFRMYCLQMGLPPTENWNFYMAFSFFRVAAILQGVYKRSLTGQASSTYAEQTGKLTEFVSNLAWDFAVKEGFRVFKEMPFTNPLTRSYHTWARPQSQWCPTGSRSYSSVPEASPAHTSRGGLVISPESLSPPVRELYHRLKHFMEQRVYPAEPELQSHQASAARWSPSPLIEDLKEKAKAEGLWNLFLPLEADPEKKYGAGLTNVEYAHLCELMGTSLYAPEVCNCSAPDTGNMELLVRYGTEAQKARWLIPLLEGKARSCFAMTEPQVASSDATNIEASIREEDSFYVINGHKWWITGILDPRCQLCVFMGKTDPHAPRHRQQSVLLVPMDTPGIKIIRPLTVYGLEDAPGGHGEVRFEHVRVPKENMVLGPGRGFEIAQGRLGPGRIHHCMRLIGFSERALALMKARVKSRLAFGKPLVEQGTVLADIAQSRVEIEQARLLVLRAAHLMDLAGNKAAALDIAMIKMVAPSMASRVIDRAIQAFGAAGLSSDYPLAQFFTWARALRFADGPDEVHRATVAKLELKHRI
# [2] = biological target: Cyclin-dependent kinase 4 (Homo sapiens, UniProt P11802)
# Chain of Cyclin-dependent kinase 4 (P11802 whole entry, canonical isoform): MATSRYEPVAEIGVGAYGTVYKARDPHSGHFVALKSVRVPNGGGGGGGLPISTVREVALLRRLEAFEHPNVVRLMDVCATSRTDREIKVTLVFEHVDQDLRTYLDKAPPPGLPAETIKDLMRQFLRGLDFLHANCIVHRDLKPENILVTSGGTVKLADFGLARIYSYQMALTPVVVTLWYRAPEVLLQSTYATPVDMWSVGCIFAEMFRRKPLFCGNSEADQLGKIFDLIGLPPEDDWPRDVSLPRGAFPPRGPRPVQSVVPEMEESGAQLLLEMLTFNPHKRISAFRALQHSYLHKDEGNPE
# [3] = biological target: Casein kinase I isoform delta (Homo sapiens, UniProt P48730)
# Chain of Casein kinase I isoform delta (P48730 whole entry, canonical isoform): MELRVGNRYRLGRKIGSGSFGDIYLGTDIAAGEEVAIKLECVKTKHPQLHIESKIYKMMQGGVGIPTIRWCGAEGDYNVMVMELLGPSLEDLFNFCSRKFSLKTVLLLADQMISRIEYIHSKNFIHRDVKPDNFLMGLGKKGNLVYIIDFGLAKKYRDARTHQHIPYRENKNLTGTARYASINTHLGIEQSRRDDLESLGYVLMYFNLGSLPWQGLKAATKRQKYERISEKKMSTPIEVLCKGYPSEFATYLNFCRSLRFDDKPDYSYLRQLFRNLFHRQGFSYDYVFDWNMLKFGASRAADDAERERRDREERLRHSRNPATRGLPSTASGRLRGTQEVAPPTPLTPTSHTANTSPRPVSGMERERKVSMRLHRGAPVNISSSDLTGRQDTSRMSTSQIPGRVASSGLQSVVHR
# [4] = biological target: Dual specificity tyrosine-phosphorylation-regulated kinase 1A (Homo sapiens, UniProt Q13627)
# [5] = biological target: Ephrin type-A receptor 7 (Homo sapiens, UniProt Q15375)
# Chain of Ephrin type-A receptor 7 (Q15375 whole entry): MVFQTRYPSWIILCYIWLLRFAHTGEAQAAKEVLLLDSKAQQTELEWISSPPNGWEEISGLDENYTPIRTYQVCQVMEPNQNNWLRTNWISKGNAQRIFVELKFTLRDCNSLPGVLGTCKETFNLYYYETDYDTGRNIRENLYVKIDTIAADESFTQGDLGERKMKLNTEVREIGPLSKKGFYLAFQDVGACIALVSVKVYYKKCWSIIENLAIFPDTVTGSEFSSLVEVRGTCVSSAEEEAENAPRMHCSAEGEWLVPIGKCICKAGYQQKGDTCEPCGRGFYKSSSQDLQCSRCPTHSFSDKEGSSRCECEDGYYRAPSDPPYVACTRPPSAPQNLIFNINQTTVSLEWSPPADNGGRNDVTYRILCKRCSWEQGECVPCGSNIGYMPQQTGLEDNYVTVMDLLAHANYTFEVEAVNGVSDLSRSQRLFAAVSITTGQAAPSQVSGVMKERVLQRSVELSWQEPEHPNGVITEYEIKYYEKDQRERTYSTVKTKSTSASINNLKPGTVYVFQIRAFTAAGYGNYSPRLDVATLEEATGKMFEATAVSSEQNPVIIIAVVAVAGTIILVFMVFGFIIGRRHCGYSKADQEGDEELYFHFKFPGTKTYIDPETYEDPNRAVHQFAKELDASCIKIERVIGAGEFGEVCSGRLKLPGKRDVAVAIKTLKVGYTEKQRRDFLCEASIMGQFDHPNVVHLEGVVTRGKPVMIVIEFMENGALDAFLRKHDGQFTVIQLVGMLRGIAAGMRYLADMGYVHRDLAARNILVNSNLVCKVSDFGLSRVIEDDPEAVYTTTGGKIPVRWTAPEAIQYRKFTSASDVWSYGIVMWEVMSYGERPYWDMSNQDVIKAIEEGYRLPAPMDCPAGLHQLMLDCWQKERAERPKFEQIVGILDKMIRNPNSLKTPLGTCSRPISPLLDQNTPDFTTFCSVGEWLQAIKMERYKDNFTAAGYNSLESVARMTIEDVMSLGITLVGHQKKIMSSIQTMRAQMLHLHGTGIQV
# [6] = biological target: T2, Ephrin type-B receptor 4 (Homo sapiens, UniProt P54760)
# T2 sequence (P54760 whole entry): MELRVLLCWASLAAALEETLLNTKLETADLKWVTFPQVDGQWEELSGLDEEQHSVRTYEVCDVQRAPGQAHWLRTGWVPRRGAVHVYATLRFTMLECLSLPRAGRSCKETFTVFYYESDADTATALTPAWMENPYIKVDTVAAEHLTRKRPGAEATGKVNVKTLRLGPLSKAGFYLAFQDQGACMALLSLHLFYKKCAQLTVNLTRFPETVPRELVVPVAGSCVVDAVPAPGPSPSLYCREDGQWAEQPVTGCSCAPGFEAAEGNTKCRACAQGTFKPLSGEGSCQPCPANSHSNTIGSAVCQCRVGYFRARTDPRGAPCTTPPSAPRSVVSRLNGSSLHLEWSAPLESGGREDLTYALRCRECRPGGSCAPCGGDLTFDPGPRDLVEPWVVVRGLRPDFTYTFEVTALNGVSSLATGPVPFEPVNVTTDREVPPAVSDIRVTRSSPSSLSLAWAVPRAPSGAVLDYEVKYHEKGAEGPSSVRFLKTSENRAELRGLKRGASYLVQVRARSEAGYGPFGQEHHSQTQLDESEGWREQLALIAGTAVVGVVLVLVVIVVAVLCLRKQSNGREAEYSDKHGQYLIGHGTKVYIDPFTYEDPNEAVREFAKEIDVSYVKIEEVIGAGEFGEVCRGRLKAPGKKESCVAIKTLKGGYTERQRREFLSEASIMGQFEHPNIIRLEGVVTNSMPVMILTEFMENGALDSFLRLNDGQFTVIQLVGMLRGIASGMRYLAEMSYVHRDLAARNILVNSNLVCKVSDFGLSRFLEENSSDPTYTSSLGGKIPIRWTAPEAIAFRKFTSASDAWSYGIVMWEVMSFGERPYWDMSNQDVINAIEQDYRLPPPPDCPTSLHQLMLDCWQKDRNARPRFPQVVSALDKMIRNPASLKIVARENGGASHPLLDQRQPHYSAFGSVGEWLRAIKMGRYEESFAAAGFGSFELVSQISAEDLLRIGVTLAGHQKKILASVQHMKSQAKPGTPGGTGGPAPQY
# [7] = biological target: Glycogen synthase kinase-3 alpha (Homo sapiens, UniProt P49840)
# Chain of Glycogen synthase kinase-3 alpha (P49840 whole entry): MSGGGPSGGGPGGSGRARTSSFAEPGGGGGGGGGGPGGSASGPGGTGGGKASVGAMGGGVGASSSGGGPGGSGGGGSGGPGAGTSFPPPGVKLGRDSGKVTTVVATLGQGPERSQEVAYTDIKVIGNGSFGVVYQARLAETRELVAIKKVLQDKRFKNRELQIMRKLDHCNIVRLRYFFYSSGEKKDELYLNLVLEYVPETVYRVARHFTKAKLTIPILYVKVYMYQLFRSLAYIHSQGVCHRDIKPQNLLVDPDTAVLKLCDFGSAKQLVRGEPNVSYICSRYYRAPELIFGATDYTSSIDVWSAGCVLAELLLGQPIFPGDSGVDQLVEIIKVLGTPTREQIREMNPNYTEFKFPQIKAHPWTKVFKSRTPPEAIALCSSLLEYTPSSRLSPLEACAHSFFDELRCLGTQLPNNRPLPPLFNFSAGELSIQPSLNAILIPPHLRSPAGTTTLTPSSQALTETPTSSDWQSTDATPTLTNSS
# [8] = biological target: T3, MAP kinase-activated protein kinase 5 (Homo sapiens, UniProt Q8IW41)
# T3 sequence (Q8IW41 whole entry): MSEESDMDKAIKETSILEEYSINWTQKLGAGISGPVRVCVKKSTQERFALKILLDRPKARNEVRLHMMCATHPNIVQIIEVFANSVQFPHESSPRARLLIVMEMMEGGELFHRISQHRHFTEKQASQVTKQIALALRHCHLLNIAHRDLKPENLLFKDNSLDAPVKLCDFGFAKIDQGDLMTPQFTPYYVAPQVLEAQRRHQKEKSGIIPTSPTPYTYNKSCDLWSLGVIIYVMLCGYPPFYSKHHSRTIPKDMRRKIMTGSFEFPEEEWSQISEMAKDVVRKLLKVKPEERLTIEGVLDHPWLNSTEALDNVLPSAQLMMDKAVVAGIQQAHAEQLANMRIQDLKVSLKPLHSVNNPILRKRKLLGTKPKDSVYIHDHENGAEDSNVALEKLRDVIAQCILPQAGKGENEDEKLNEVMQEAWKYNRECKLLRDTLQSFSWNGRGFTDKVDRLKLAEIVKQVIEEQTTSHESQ
# [9] = biological target: Protein-tyrosine kinase 2-beta (Homo sapiens, UniProt Q14289)
# Chain of Protein-tyrosine kinase 2-beta (Q14289 whole entry): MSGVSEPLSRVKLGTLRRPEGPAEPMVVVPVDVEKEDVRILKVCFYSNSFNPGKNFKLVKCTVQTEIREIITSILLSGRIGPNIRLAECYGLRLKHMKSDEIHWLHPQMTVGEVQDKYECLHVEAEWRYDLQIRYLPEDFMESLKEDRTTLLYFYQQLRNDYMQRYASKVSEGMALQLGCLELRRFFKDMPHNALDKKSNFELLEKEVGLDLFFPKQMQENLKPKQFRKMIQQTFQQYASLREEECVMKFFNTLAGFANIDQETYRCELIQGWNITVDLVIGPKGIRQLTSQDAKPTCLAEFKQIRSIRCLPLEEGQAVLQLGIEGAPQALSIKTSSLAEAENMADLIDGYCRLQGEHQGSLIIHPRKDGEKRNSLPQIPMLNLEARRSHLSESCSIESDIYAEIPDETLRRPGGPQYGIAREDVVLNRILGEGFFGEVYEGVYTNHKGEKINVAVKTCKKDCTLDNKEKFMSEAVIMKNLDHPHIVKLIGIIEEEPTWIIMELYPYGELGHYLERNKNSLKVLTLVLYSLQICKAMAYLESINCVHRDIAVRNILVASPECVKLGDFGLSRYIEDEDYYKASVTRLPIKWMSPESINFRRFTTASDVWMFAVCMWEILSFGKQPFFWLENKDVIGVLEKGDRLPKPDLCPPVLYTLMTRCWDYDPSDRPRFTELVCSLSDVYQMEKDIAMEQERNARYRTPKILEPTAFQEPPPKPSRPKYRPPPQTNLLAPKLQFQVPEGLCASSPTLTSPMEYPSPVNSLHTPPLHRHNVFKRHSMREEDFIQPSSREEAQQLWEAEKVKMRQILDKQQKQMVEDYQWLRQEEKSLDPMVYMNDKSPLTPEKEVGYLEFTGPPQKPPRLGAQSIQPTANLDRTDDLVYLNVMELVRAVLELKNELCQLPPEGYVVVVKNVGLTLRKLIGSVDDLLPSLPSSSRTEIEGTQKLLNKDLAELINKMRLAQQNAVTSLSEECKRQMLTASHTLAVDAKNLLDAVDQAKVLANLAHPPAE
# [10] = biological target: Ras-related protein Rab-6A (Homo sapiens, UniProt P20340)
# Chain of Ras-related protein Rab-6A (P20340 whole entry): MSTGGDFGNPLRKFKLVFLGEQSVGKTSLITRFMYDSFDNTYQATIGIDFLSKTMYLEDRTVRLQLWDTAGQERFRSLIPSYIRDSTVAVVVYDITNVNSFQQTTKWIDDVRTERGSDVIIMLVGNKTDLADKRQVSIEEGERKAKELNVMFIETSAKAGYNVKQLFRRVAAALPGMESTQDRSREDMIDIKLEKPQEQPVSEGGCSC
# [11] = biological target: DNA topoisomerase 2-beta (Homo sapiens, UniProt Q02880)
# Chain of DNA topoisomerase 2-beta (Q02880 whole entry): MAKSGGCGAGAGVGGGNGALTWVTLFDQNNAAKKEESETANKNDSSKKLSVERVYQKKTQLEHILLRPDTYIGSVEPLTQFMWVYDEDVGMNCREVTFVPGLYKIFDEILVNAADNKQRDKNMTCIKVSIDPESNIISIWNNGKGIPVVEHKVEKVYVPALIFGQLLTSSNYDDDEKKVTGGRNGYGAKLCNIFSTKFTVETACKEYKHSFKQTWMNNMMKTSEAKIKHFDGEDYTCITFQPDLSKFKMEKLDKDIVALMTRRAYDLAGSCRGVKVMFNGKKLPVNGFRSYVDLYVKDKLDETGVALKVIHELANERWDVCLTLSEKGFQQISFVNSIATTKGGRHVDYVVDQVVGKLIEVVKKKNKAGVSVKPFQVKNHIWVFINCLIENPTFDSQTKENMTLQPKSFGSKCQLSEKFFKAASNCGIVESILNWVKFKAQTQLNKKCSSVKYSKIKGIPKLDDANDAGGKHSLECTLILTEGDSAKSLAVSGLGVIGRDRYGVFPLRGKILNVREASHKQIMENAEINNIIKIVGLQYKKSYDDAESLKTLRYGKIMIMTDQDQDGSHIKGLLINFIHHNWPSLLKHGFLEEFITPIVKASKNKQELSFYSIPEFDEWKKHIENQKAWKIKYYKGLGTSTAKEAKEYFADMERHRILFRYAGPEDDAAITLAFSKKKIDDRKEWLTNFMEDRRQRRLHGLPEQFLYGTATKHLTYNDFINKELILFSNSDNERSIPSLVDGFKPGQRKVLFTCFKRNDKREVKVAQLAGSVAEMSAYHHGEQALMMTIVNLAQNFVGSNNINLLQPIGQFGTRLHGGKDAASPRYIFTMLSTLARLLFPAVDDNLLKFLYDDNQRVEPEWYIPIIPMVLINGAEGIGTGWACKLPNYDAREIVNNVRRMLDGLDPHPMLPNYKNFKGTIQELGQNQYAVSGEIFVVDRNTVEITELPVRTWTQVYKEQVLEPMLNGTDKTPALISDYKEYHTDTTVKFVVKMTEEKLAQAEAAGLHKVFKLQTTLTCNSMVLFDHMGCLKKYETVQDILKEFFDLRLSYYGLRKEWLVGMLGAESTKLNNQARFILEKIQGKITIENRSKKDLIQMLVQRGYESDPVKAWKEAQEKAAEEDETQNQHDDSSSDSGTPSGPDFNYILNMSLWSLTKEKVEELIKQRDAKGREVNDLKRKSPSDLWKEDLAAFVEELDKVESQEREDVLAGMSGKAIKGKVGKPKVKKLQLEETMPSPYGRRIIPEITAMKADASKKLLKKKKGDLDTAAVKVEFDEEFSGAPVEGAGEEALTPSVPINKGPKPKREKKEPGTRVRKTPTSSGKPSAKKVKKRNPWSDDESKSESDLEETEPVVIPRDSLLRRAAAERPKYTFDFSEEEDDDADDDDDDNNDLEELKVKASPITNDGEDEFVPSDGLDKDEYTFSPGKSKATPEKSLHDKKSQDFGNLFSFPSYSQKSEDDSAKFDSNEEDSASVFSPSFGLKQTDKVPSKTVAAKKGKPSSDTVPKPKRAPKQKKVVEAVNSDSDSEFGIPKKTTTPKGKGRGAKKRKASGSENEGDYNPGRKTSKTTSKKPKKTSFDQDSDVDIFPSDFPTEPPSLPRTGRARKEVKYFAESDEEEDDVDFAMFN
# Note: in the data inactive means no Kd found up to 30 µM.
Kd [1],Kd [2],Kd [3],Kd [4],Kd [5],Kd [6],Kd [7],Kd [8],Kd [9],Kd [10],Kd [11],SMILES
> 30 µM (inactive),> 30 µM (inactive),> 30 µM (inactive),> 30 µM (inactive),> 30 µM (inactive),> 30 µM (inactive),> 30 µM (inactive),> 30 µM (inactive),> 30 µM (inactive),> 30 µM (inactive),> 30 µM (inactive),O=C(Nc1ccc(OC(F)(F)F)cc1)c1sccc1NCc1ccnc2ccccc12 [OSI-930]
> 30 µM (inactive),> 30 µM (inactive),> 30 µM (inactive),> 30 µM (inactive),> 30 µM (inactive),> 30 µM (inactive),> 30 µM (inactive),> 30 µM (inactive),> 30 µM (inactive),> 30 µM (inactive),> 30 µM (inactive),COc1cc(Nc2ncc(F)c(Nc3ccc4c(n3)N(COP(=O)(O)O)C(=O)C(C)(C)O4)n2)cc(OC)c1OC [FOSTAMATINIB]
> 30 µM (inactive),> 30 µM (inactive),> 30 µM (inactive),> 30 µM (inactive),> 30 µM (inactive),> 30 µM (inactive),> 30 µM (inactive),> 30 µM (inactive),> 30 µM (inactive),> 30 µM (inactive),> 30 µM (inactive),CNC(=O)c1cc(COc2nnc(Nc3ccc(Cl)cc3)c3ccoc23)ccn1 [TELATINIB]
> 30 µM (inactive),> 30 µM (inactive),> 30 µM (inactive),> 30 µM (inactive),> 30 µM (inactive),> 30 µM (inactive),> 30 µM (inactive),> 30 µM (inactive),> 30 µM (inactive),> 30 µM (inactive),> 30 µM (inactive),FC(F)(F)c1ccc(CNc2ccc(Cc3c[nH]c4ncc(Cl)cc34)cn2)cn1 [PEXIDARTINIB]
> 30 µM (inactive),> 30 µM (inactive),> 30 µM (inactive),> 30 µM (inactive),> 30 µM (inactive),> 30 µM (inactive),> 30 µM (inactive),> 30 µM (inactive),> 30 µM (inactive),> 30 µM (inactive),> 30 µM (inactive),S=C(NCc1ccc2c(c1)OCO2)N1CCN(c2ncnc3c2oc2ccccc23)CC1 [AMUVATINIB]
> 30 µM (inactive),> 30 µM (inactive),> 30 µM (inactive),> 30 µM (inactive),> 30 µM (inactive),> 30 µM (inactive),> 30 µM (inactive),> 30 µM (inactive),> 30 µM (inactive),> 30 µM (inactive),> 30 µM (inactive),C=CC(=O)Nc1cccc(Nc2nc(Nc3ccc(N4CCN(C(C)=O)CC4)cc3OC)ncc2C(F)(F)F)c1 [ROCILETINIB]
> 30 µM (inactive),> 30 µM (inactive),> 30 µM (inactive),> 30 µM (inactive),> 30 µM (inactive),> 30 µM (inactive),> 30 µM (inactive),> 30 µM (inactive),1.88 µM (active),> 30 µM (inactive),> 30 µM (inactive),Cc1cc(Nc2nc(N[C@@H](C)c3ncc(F)cn3)ncc2Cl)n[nH]1 [AZD-1480]
3.96 µM (active),> 30 µM (inactive),> 30 µM (inactive),> 30 µM (inactive),> 30 µM (inactive),> 30 µM (inactive),> 30 µM (inactive),> 30 µM (inactive),> 30 µM (inactive),> 30 µM (inactive),> 30 µM (inactive),O=S(=O)(c1cccc2c(O)nccc12)N1CCCNCC1 [HYDROXYFASUDIL]

SMILES,Kd [1],Kd [2],Kd [3],Kd [4],Kd [5],Kd [6],Kd [7],Kd [8],Kd [9],Kd [10],Kd [11]
COc1cc(F)c(F)c(Nc2ccc(I)cc2F)c1NS(=O)(=O)C1(C[C@H](O)CO)CC1 [REFAMETINIB],> 30 µM (inactive),> 30 µM (inactive),> 30 µM (inactive),> 30 µM (inactive),> 30 µM (inactive),> 30 µM (inactive),> 30 µM (inactive),> 30 µM (inactive),> 30 µM (inactive),> 30 µM (inactive),> 30 µM (inactive)
